Here are results for 42 compounds from US4002623A, “Anti-inflammatory 1-[3-(dialkylamino)propyl]-2-acylaminobenzimidazoles and 2-acylamino-3-[3-(dialkylamino)-propyl]imidazo[4,5-b]pyridines” (Pfizer Inc., priority 1974, dated 1977).

A short description of the assay: adjuvant arthritis screen (Walz et al.), swelling of the non-injected left hind foot on Day 16. The assay is classed as in vivo, male inbred Lewis rats. The settings on record: Rattus norvegicus, 384 h, daily day -1 through day 15, read-out: Activity Percent Inhibition; for inhibition in vivo at 33 mg/kg: 33 mg./kg. ip; for inhibition in vivo at 20 mg/kg: 20 mg./kg. po. The source says: The adjuvant arthritis test described by Walz et al., Ann. Rheum. Dis., 30, 303 (1971) was selected as the method of choice for the determination of the extent of which the novel compounds of the present invention are therapeutically effective as anti-inflammatory agents. Adjuvant arthritis is a crippling deformity in rats resulting from diffuse connective tissue involvement. It is considered by some authorities to be the best available experimental animal model of human rheumatoid arthritis because of its strong clinical and pathological similarities to the human disease and because it can be effectively treated with known anti-arthritic drugs. In this test, lesions resembling those of human rheumatoid arthritis are induced by the injection of complete Freund's adjuvant into one hind leg of a rat. A vigorous inflammatory response occurs in the injected hind leg and reaches its greatest size in about four days. This primary response is followed by the development of a second inflammatory response, appearing about 12-16 days post-injection, that occurs in the uninjected hind leg. While the compounds of the invention are capable of inhibiting the degree of inflammation in both legs, the inhibition of swelling in the uninjected leg at 16 days is considered to be the more meaningful measure of antiarthritic activity.
The adjuvant arthritis screen as described by Walz et al. (Ann. Rheum. Dis., 30: 303 (1971), was used to evaluate the above prepared compounds.
The screen is conducted using male inbred Lewis rats weighing approximately 250 gm. The animals are dosed with drug beginning on day- 1 and continuing daily through day 15. On Day 0, the subplanter surface of the right hind paw is injected with 0.1cc of a 1% suspension of Mycobacterium butyricum (Freunds adjuvant) in Primol (Esso). The swelling of the non-injected left hind foot on Day 16, resulting from immune response to adjuvant, was determined for dosed animals and controls. The foot volume is measured by immersing the paw to the anatomical hairline into a mercury reservoir which is connected to a Statham pressure transducer and a recording device. The results are expressed as % inhibition calculated according to the following equation: [formula] The results obtained are as follows for [drawing 22] where Z is --N(CH3)2 and X is carbon: […]

Like-named read-outs stand apart in the source and are kept apart here.

For the compound `COc1cccc(C(=O)Nc2nc3ccccc3n2CCCN2CCOCC2)c1` [3-Methoxyphenyl; H; H; drawing 23], the inhibition in vivo at 33 mg/kg is 29%.
For `COc1cccc(C(=O)Nc2nc3ccccc3n2CCCN2CCN(C)CC2)c1` [3-Methoxyphenyl; H; H; drawing 24], the inhibition in vivo at 33 mg/kg amounted to 26%.
Regarding `COc1cccc(C(=O)Nc2nc3cccnc3n2CCCN2CCN(C)CC2)c1` [3-Methoxyphenyl; H; H; drawing 25], the inhibition in vivo at 20 mg/kg was 25%.
As to `COc1cccc(C(=O)Nc2nc3ccccc3n2CCCN2CCCCC2)c1` [3-Methoxyphenyl; H; H; drawing 26], the inhibition in vivo at 33 mg/kg worked out at 52%.
As to `COc1cccc(C(=O)Nc2nc3cc(OC)ccc3n2CCCN2CCN(C)CC2)c1` [3-Methoxyphenyl; OCH3; H; drawing 24], the inhibition in vivo at 33 mg/kg was 43%.
As to `COc1cccc(C(=O)Nc2nc3cc(S(=O)(=O)N(C)C)ccc3n2CCCN2CCN(C)CC2)c1` [3-Methoxyphenyl; SO2 N(CH3)2; H; drawing 24], the inhibition in vivo at 20 mg/kg was 13%.
On to `Cc1cccc(C(=O)Nc2nc3ccccc3n2CCCN(C)C)c1` [3-Methylphenyl; H; H; Z = N(CH3)2], for which the inhibition in vivo at 33 mg/kg was determined as 21%.
On the same count and under the same terms, to `Cc1cccc(C(=O)Nc2nc3ccccc3n2CCCN2CCOCC2)c1` [3-Methylphenyl; H; H; drawing 23] belongs 40%.
For `Cc1cccc(C(=O)Nc2nc3ccccc3n2CCCN2CCN(C)CC2)c1` [3-Methylphenyl; H; H; drawing 24], the inhibition in vivo at 33 mg/kg was found to be 39%.
On to `CN1CCN(CCCn2c(NC(=O)c3cccc(C(F)(F)F)c3)nc3cc(C(F)(F)F)ccc32)CC1` [3-Trifluoromethylphenyl; CF3; H; drawing 24, 1-[3-(4-methyl-1-piperazinyl)propyl]-2-(3-trifluoromethylbenzamido)-5-trifluoromethylbenzimidazole], for which the inhibition in vivo at 33 mg/kg amounted to 83%. The inhibition in vivo at 10 mg/kg (10 mg./kg. po) is 46%.
On to `Cc1ccc2c(c1)nc(NC(=O)c1cccc(C(F)(F)F)c1)n2CCCN1CCN(C)CC1` [3-Trifluoromethylphenyl; CH3; H; drawing 24], for which the inhibition in vivo at 20 mg/kg worked out at 27%.
With `CN1CCN(CCCn2c(NC(=O)c3cccc(C(F)(F)F)c3)nc3cc(Cl)c(Cl)cc32)CC1` [3-Trifluoromethylphenyl; Cl; Cl; drawing 24], the inhibition in vivo at 33 mg/kg stood at 74%.
With `CN1CCN(CCCn2c(NC(=O)c3cccc(C(F)(F)F)c3)nc3cc(Cl)ccc32)CC1` [3-Trifluoromethylphenyl; Cl; H; drawing 24], the inhibition in vivo at 33 mg/kg is 74%. Also, the inhibition in vivo at 10 mg/kg (10 mg./kg. po) worked out at 16%.
In the case of `Cc1ccc2nc(NC(=O)c3cccc(C(F)(F)F)c3)n(CCCN3CCN(C)CC3)c2c1` [3-Trifluoromethylphenyl; H; CH3; drawing 24], the inhibition in vivo at 20 mg/kg turned out to be 21%.
Regarding `O=C(Nc1nc2ccccc2n1CCCN1CCOCC1)c1cccc(C(F)(F)F)c1` [3-Trifluoromethylphenyl; H; H; drawing 23], the inhibition in vivo at 33 mg/kg amounted to 0%.
For the compound `CN1CCN(CCCn2c(NC(=O)c3cccc(C(F)(F)F)c3)nc3ccccc32)CC1` [3-Trifluoromethylphenyl; H; H; drawing 24], the inhibition in vivo at 33 mg/kg came to 79%. Moreover, where the note is “10 mg./kg. po”, the inhibition in vivo at 10 mg/kg stood at 18%.
On to `CN1CCN(CCCn2c(NC(=O)c3cccc(C(F)(F)F)c3)nc3cccnc32)CC1` [3-Trifluoromethylphenyl; H; H; drawing 25, 2-(3-trifluoromethylbenzamido)-3-[3-(4-methyl-1-piperazino)propyl]imidazo[4,5-b]pyridine], for which the inhibition in vivo at 20 mg/kg stood at 39%.
For `O=C(Nc1nc2ccccc2n1CCCN1CCCCC1)c1cccc(C(F)(F)F)c1` [3-Trifluoromethylphenyl; H; H; drawing 26], the inhibition in vivo at 33 mg/kg amounted to 30%.
Consider `O=C(Nc1nc2ccccc2n1CCCN1CCN(Cc2ccccc2)CC1)c1cccc(C(F)(F)F)c1` [3-Trifluoromethylphenyl; H; H; drawing 27], for which the inhibition in vivo at 10 mg/kg (10 mg./kg. ip) amounted to 35%.
Regarding `O=C(Nc1nc2ccccc2n1CCCN1CCNCC1)c1cccc(C(F)(F)F)c1` [3-Trifluoromethylphenyl; H; H; drawing 28], the inhibition in vivo at 10 mg/kg (10 mg./kg. po) was 13%.
`COc1ccc2c(c1)nc(NC(=O)c1cccc(C(F)(F)F)c1)n2CCCN1CCN(C)CC1` [3-Trifluoromethylphenyl; OCH3; H; drawing 24]: the inhibition in vivo at 33 mg/kg worked out at 57%. Further, the inhibition in vivo at 10 mg/kg (10 mg./kg. po) is -5%.
As to `CN1CCN(CCCn2c(NC(=O)c3ccc(Cl)cc3)nc3cc(C(F)(F)F)ccc32)CC1` [4-Chlorophenyl; CF3; H; drawing 24], the inhibition in vivo at 33 mg/kg was determined as 47%.
Regarding `Cc1cc2nc(NC(=O)c3ccc(Cl)cc3)n(CCCN3CCN(C)CC3)c2cc1C` [4-Chlorophenyl; CH3; CH3; drawing 24], the inhibition in vivo at 20 mg/kg amounted to 30%.
As for `Cc1ccc2c(c1)nc(NC(=O)c1ccc(Cl)cc1)n2CCCN1CCN(C)CC1` [4-Chlorophenyl; CH3; H; drawing 24], the inhibition in vivo at 20 mg/kg is 27%.
For `CN1CCN(CCCn2c(NC(=O)c3ccc(Cl)cc3)nc3cc(Cl)ccc32)CC1` [4-Chlorophenyl; Cl; H; drawing 24], the inhibition in vivo at 33 mg/kg worked out at 63%. Moreover, the inhibition in vivo at 10 mg/kg (10 mg./kg. po) was -10%.
`CN(C)CCCn1c(NC(=O)c2ccc(Cl)cc2)nc2ccccc21` [4-Chlorophenyl; H; H; Z = N(CH3)2, 1-[3-(dimethylamino)propyl]-2-(4-chlorobenzamido)-benzimidazole]: the inhibition in vivo at 33 mg/kg is 51%. Also, the inhibition in vivo at 10 mg/kg (10 mg./kg. ip) was found to be 27%.
Take `O=C(Nc1nc2ccccc2n1CCCN1CCOCC1)c1ccc(Cl)cc1` [4-Chlorophenyl; H; H; drawing 23]: the inhibition in vivo at 33 mg/kg is 15%.
`CN1CCN(CCCn2c(NC(=O)c3ccc(Cl)cc3)nc3ccccc32)CC1` [4-Chlorophenyl; H; H; drawing 24]: the inhibition in vivo at 33 mg/kg is 43%.
In the case of `CN1CCN(CCCn2c(NC(=O)c3ccc(Cl)cc3)nc3cccnc32)CC1` [4-Chlorophenyl; H; H; drawing 25], the inhibition in vivo at 20 mg/kg came out at 26%.
Consider `O=C(Nc1nc2ccccc2n1CCCN1CCCCC1)c1ccc(Cl)cc1` [4-Chlorophenyl; H; H; drawing 26], for which the inhibition in vivo at 33 mg/kg was found to be 46%.
For `CN1CCN(CCCn2c(NC(=O)c3ccc(Cl)cc3)nc3cc(S(=O)(=O)N(C)C)ccc32)CC1` [4-Chlorophenyl; SO2 N(CH3)2; H; drawing 24], the inhibition in vivo at 20 mg/kg turned out to be 18%.
Consider `CN1CCN(CCCn2c(NC(=O)C=Cc3ccc(Cl)cc3)nc3cc(C(F)(F)F)ccc32)CC1` [4-Chlorostyryl; CF3; H; drawing 24], for which the inhibition in vivo at 20 mg/kg stood at 6%.
Take `Cc1ccc2c(c1)nc(NC(=O)C=Cc1ccc(Cl)cc1)n2CCCN1CCN(C)CC1` [4-Chlorostyryl; CH3; H; drawing 24, 1-[3-(4-methyl-1-piperazinyl)propyl]-2-(p-chlorocinnamido)-5-methylbenzimidazole]: the inhibition in vivo at 20 mg/kg came out at 39%.
For the compound `CN1CCN(CCCn2c(NC(=O)C=Cc3ccc(Cl)cc3)nc3cc(Cl)ccc32)CC1` [4-Chlorostyryl; Cl; H; drawing 24], the inhibition in vivo at 33 mg/kg is 66%.
As for `CN(C)CCCn1c(NC(=O)C=Cc2ccc(Cl)cc2)nc2ccccc21` [4-Chlorostyryl; H; H; Z = N(CH3)2], the inhibition in vivo at 33 mg/kg is 33%.
Take `COc1ccc2c(c1)nc(NC(=O)C=Cc1ccc(Cl)cc1)n2CCCN1CCN(C)CC1` [4-Chlorostyryl; OCH3; H; drawing 24]: the inhibition in vivo at 10 mg/kg (10 mg./kg. po) worked out at 47%.
As to `COc1ccc(C(=O)Nc2nc3cc(Cl)ccc3n2CCCN2CCN(C)CC2)cc1` [4-Methoxyphenyl; Cl; H; drawing 24], the inhibition in vivo at 33 mg/kg was 46%.
Turning to `COc1ccc(C(=O)Nc2nc3ccc(C)cc3n2CCCN2CCN(C)CC2)cc1` [4-Methoxyphenyl; H; CH3; drawing 24], the inhibition in vivo at 20 mg/kg came out at 22%.
Take `COc1ccc(C(=O)Nc2nc3ccccc3n2CCCN(C)C)cc1` [4-Methoxyphenyl; H; H; Z = N(CH3)2, 1-[3-(dimethylamino)propyl]-2-(4-methyoxybenzamido-)benzimidazole]: the inhibition in vivo at 33 mg/kg turned out to be 59%. The inhibition in vivo at 10 mg/kg (10 mg./kg. po) was found to be 12%.
Consider `COc1ccc(C(=O)Nc2nc3ccccc3n2CCCN2CCOCC2)cc1` [4-Methoxyphenyl; H; H; drawing 23], for which the inhibition in vivo at 33 mg/kg was 54%.
Same read-out and setting: to `COc1ccc(C(=O)Nc2nc3ccccc3n2CCCN2CCN(C)CC2)cc1` [4-Methoxyphenyl; H; H; drawing 24] belongs 27%.
For the compound `COc1ccc(C(=O)Nc2nc3cccnc3n2CCCN2CCN(C)CC2)cc1` [4-Methoxyphenyl; H; H; drawing 25], the inhibition in vivo at 20 mg/kg came to 5%.
